ChEMBL document CHEMBL1201862, “PubChem BioAssay data set” (2004)
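Results reflect a 48-hour exposure of cells in 96-well plates to compound at five concentrations. GI50 marks 50% less growth.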 Active and inactive are the calls of the source. No stated cut-off is given here; in the data, active = GI50 up to about 1.1 µM and inactive = higher.

What was measured:
Test in all cases: inhibition of tumour cell growth, NCI panel, 48 h
A549 = tested on: A549
SK-MEL-5 = tested on: SK-MEL-5
UACC-62 = tested on: UACC-62
PC-3 = tested on: PC-3
HCT-116 = tested on: HCT-116
HCT-15 = tested on: HCT-15
OVCAR-3 = tested on: OVCAR-3
ACHN = tested on: ACHN
CCRF-CEM = tested on: CCRF-CEM
A498 = tested on: A498
NCI-H460 = tested on: NCI-H460
Hs-578T = tested on: Hs-578T
OVCAR-4 = tested on: OVCAR-4
SR = tested on: SR
MOLT-4 = tested on: MOLT-4
IGROV-1 = tested on: IGROV-1
MDA-MB-435 = tested on: MDA-MB-435
K562 = tested on: K562
RXF 393 = tested on: RXF 393
HL-60 = tested on: HL-60

SMILES	GI50 (A549)	GI50 (SK-MEL-5)	GI50 (UACC-62)	GI50 (PC-3)	GI50 (HCT-116)	GI50 (HCT-15)	GI50 (OVCAR-3)	GI50 (ACHN)	GI50 (CCRF-CEM)	GI50 (A498)	GI50 (NCI-H460)	GI50 (Hs-578T)	GI50 (OVCAR-4)	GI50 (SR)	GI50 (MOLT-4)	GI50 (IGROV-1)	GI50 (MDA-MB-435)	GI50 (K562)	GI50 (RXF 393)	GI50 (HL-60)
COC(=O)c1cc2c(n1S(=O)(=O)c1ccc(C)cc1)C(=O)C(=O)c1[nH]cc(C(=O)OCc3ccccc3)c1-2	0.183 µM (active)	0.0237 µM (active)	0.0555 µM (active)	0.264 µM (active)	0.0718 µM (active)	0.0673 µM	< 0.0141 µM (active)	0.233 µM (active)	0.0873 µM (active)	1.65 µM (inactive)	1.37 µM (inactive)	0.43 µM (active)	0.209 µM (active)	0.0906 µM (active)	0.0647 µM (active)	0.197 µM (active)	< 0.015 µM (active)	0.0439 µM (active)	0.0973 µM (active)	0.0289 µM (active)
Cn1c(-c2cccs2)cc(-c2ccccc2)c1-c1cccs1	12.3 µM (inactive)	18.6 µM (inactive)	97.5 µM (inactive)	58.5 µM (inactive)	31.2 µM (inactive)	> 100 µM	20.4 µM (inactive)	39.9 µM (inactive)	> 100 µM (inactive)	> 100 µM (inactive)	> 100 µM (inactive)	> 100 µM (inactive)	74.3 µM (inactive)	18.2 µM (inactive)	66.2 µM (inactive)	39.4 µM (inactive)	> 100 µM (inactive)	> 100 µM (inactive)	> 100 µM (inactive)	68.7 µM (inactive)
NNc1nnc(-c2nnc(NN)o2)o1	> 10 µM (inactive)	> 10 µM (inactive)	> 10 µM (inactive)	> 10 µM (inactive)	> 10 µM (inactive)	> 10 µM	> 10 µM (inactive)	> 10 µM (inactive)	> 10 µM (inactive)	> 10 µM (inactive)	> 10 µM (inactive)	> 10 µM (inactive)	> 10 µM (inactive)	> 10 µM (inactive)	> 10 µM (inactive)	> 10 µM (inactive)	> 10 µM (inactive)	> 10 µM (inactive)	> 10 µM (inactive)	> 10 µM (inactive)
CC(C)=CC(=O)c1[nH]c2ccccc2c1CC(=O)NCCc1c[nH]cn1	> 100 µM (inactive)	> 100 µM (inactive)	> 100 µM (inactive)	> 100 µM (inactive)	> 100 µM (inactive)	> 100 µM	> 100 µM (inactive)	> 100 µM (inactive)	> 100 µM (inactive)	> 100 µM (inactive)	> 100 µM (inactive)	> 100 µM (inactive)	> 100 µM (inactive)	> 100 µM (inactive)	> 100 µM (inactive)	> 100 µM (inactive)	> 100 µM (inactive)	> 100 µM (inactive)	> 100 µM (inactive)	> 100 µM (inactive)
COC(=O)C(/C(=N/N)C(=O)Nc1ccc(C)c(C)c1)c1nc2ccc(Cl)cc2nc1O (stereo not given)	> 100 µM (inactive)	> 100 µM (inactive)	> 100 µM (inactive)	> 100 µM (inactive)	> 100 µM (inactive)	> 100 µM	> 100 µM (inactive)	40.3 µM (inactive)	> 100 µM (inactive)	> 100 µM (inactive)	> 100 µM (inactive)	> 100 µM (inactive)	> 100 µM (inactive)	> 100 µM (inactive)	> 100 µM (inactive)	49.3 µM (inactive)	> 100 µM (inactive)	> 100 µM (inactive)	> 100 µM (inactive)	> 100 µM (inactive)
